Laboratory results published in paper PMC10047683, “A Novel Family of Lysosomotropic Tetracyclic Compounds for Treating Leukemia” (Cancers, 2023).

Legend:
Assay type in all cases: cell-based
HEK-293T = assay: Pancancer cell line panel viability (nontumor line); conditions: HEK-293T (nontumor); 10 µM; 48 h
Method: (§1) First, 2 × 10^5 (72 h assays in cell lines (Supplementary File S1)), 3 × 10^5 (48 h assays in cell lines) or 7.5 × 10^5 (primary AML, healthy donor buffy coats) cells per mL were cultured in 96-well plates, and all drugs were added at the indicated concentrations. In α-tocopherol experiments, cells were treated with growing concentrations of α-tocopherol and EDK drugs for 48 h. In the NAC and 3MA experiments, treatment was simultaneous with EDK compounds. In glucose deprivation experiments, cells were cultivated with a standard medium (glucose high, 2 g/L), a standard medium without glucose, or a standard medium with galactose (2 g/L) and without glucose. Cell viability was measured via 7-AAD (eBioscience) exclusion and Hoechst33342 (Sigma-Aldrich, St. Louis, MO, USA) positivity staining via flow cytometry, and the cell count was obtained through volume. In the experiments with the primary cells, analyses were performed inside the blast population as detected via blast gates (CD45^low SSC^int). For solid tumor cell lines, viability was analyzed using CellTiter-Glo® Luminescent Cell Viability Assay (Promega).
(§2) AML cell lines and cell cultures
(§3) Cell lines HL-60 (ACC-3), KG-1 (ACC-14), MonoMac-1 (ACC-252), Kasumi-1 […]
(§4) obtained from DSMZ. Cell lines THP-1 (TIB-202TM), MCF-7 (HTB-22™), MDA- […]
(§5) 3216™) and HS-5 (CRL-11882™) were obtained from ATCC. HBL-2 cell line was kindly supplied by Dr. Pérez-Galán (IDIBAPS, Barcelona, Spain). SKM-1 and U937 were kindly provided by Dr. Marcus Buschbeck (IJC, Badalona, Spain). All cell lines were cultured in the conditions indicated by the providers, and were tested for mycoplasma on a monthly basis.
(§6) All drugs were resuspended in H2O (Thermo Fischer Scientific), DMSO (Sigma-Aldrich) or ethanol (VWR) according to manufacturer’s specifications. - tocopherol, 3-methyladenine (3MA), arsenic trioxide (ATO) and N-acetyl-L-cysteine (NAC) were purchased from Sigma Aldrich. Chloroquine diphosphate was purchased from Merck. Etoposide and ionomycin were purchased from […]
(§7) (1 picture or pasted object on this page, not shown here)

HS-5 = assay: as above; conditions: HS-5 (nontumor); 10 µM; 48 h
Method: as §1, §2, §3, §4, §5, §6, §7

U266 = assay: Pancancer cell line panel viability; conditions: 10 µM, 48 h
Method: as §1, §2, §3, §4, §5, §6, §7

Jurkat = assay: Pancancer cell line panel viability; conditions: 10 µM, 48 h
Method: as §1, §2, §3, §4, §5, §6, §7

HCT-15 = assay: Pancancer cell line panel viability; conditions: 10 µM, 48 h
Method: as §1, §2, §3, §4, §5, §6, §7

MCF-7 = assay: Pancancer cell line panel viability; conditions: 10 µM, 48 h
Method: as §1, §2, §3, §4, §5, §6, §7

CAKI = assay: Pancancer cell line panel viability; conditions: 10 µM, 48 h
Method: as §1, §2, §3, §4, §5, §6, §7

A549 = assay: Pancancer cell line panel viability; conditions: 10 µM, 48 h
Method: as §1, §2, §3, §4, §5, §6, §7

JJN3 = assay: Pancancer cell line panel viability; conditions: 10 µM, 48 h
Method: as §1, §2, §3, §4, §5, §6, §7

OVCAR = assay: Pancancer cell line panel viability; conditions: 10 µM, 48 h
Method: as §1, §2, §3, §4, §5, §6, §7

HCT-116 = assay: Pancancer cell line panel viability; conditions: 10 µM, 48 h
Method: as §1, §2, §3, §4, §5, §6, §7

SR = assay: Pancancer cell line panel viability; conditions: 10 µM, 48 h
Method: as §1, §2, §3, §4, §5, §6, §7

HOP62 = assay: Pancancer cell line panel viability; conditions: 10 µM, 48 h
Method: as §1, §2, §3, §4, §5, §6, §7

GRANTA = assay: Pancancer cell line panel viability; conditions: 10 µM, 48 h
Method: as §1, §2, §3, §4, §5, §6, §7

MDA-MB-231 = assay: Pancancer cell line panel viability; conditions: 10 µM, 48 h
Method: as §1, §2, §3, §4, §5, §6, §7

M14 = assay: Pancancer cell line panel viability; conditions: 10 µM, 48 h
Method: as §1, §2, §3, §4, §5, §6, §7

NCI = assay: Pancancer cell line panel viability; conditions: 10 µM, 48 h
Method: as §1, §2, §3, §4, §5, §6, §7

ACHN = assay: Pancancer cell line panel viability; conditions: 10 µM, 48 h
Method: as §1, §2, §3, §4, §5, §6, §7

MOLT4 = assay: Pancancer cell line panel viability; conditions: 10 µM, 48 h
Method: as §1, §2, §3, §4, §5, §6, §7

PC-3 = assay: Pancancer cell line panel viability; conditions: 10 µM, 48 h
Method: as §1, §2, §3, §4, §5, §6, §7

MDA-MB-435 = assay: Pancancer cell line panel viability; conditions: 10 µM, 48 h
Method: as §1, §2, §3, §4, §5, §6, §7

K562 = assay: Pancancer cell line panel viability; conditions: 10 µM, 48 h
Method: as §1, §2, §3, §4, §5, §6, §7

HBL2 = assay: Pancancer cell line panel viability; conditions: 10 µM, 48 h
Method: as §1, §2, §3, §4, §5, §6, §7

RAMOS = assay: Pancancer cell line panel viability; conditions: 10 µM, 48 h
Method: as §1, §2, §3, §4, §5, §6, §7

DU-145 = assay: Pancancer cell line panel viability; conditions: 10 µM, 48 h
Method: as §1, §2, §3, §4, §5, §6, §7

[1] = test system: intracellular calcium in HL60 cells; assay: Calcium mobilization assay (Fura2 probe); conditions: 10 µM EDK-87/EDK-88, 50 µM chloroquine
Method: 1,000 cells of AML cell lines or 50,000 primary cells (both AML and lin-depleted UCB) were treated at the indicated concentration for 18 h, and cultured in 1 mL of MethoCult H4034 Optimum (StemCell Technologies, Vancouver, BC, Canada).
Colonies were screened based on morphology and cellularity at day 7 (cell lines) […]
Calcium mobilization assay
1 x 10^6 cells per mL were loaded for 30’ at 37 °C with the Fura-2-AM probe (Thermo Fisher) at a final 2 µM concentration in pre-warmed calcium- and magnesium-free Hanks BSA solution. Cells were then washed and resuspended in Hanks BSA solution with calcium and magnesium at 3 x 10^5 cells per mL. In parallel, 50µL of drugs in Hanks BSA solution with calcium and magnesium were added to 96-well black wall clear bottom plates and background fluorescence […]
Cells were then added to the plate
(50µL/well) and fluorescence was acquired at indicated timepoints using a Synergy HT Multi-Detection Microplate Reader (BioTek). For the analysis, all values were subtracted their corresponding background fluorescence, and the ratio 340/380 was calculated. Finally, ratios were normalized to vehicle-treated […]
Semi-Quantitative Real Time PCR

KG1 = assay: AraC EC50 in parental and AraC resistant cells; conditions: Homo sapiens
SKM1 = assay: AraC EC50 in parental and AraC resistant cells; conditions: Homo sapiens
HL60 = assay: AraC EC50 in parental and AraC resistant cells; conditions: Homo sapiens

CCN(CC)CCCC(C)Nc1ccnc2cc(Cl)ccc12 (centres unmarked) [CHL, chloroquine, reference compound]
# Live cells refer to control (HEK-293T): 67% | # Live cells refer to control (HS-5): 74% | # Live cells refer to control (U266): 67% | # Live cells refer to control (Jurkat): 94% | # Live cells refer to control (HCT-15): 77% | # Live cells refer to control (MCF-7): 54% | # Live cells refer to control (CAKI): 55% | # Live cells refer to control (A549): 59% | # Live cells refer to control (JJN3): 84% | # Live cells refer to control (OVCAR): 74% | # Live cells refer to control (HCT-116): 80% | # Live cells refer to control (SR): 23% | # Live cells refer to control (HOP62): 55% | # Live cells refer to control (GRANTA): 51% | # Live cells refer to control (MDA-MB-231): 50% | # Live cells refer to control (M14): 42% | # Live cells refer to control (NCI): 69% | # Live cells refer to control (ACHN): 93% | # Live cells refer to control (MOLT4): 57% | # Live cells refer to control (PC-3): 63% | # Live cells refer to control (MDA-MB-435): 44% | # Live cells refer to control (K562): 105% | # Live cells refer to control (HBL2): 62% | # Live cells refer to control (RAMOS): 115% | # Live cells refer to control (DU-145): 54% | intracellular calcium mobilization [1]: failed to mobilize intracellular calcium

Nc1ccn([C@@H]2O[C@H](CO)[C@@H](O)[C@@H]2O)c(=O)n1 [AraC, cytarabine]
EC50 (KG1; KG-1, KG1 AraCR (AraC resistant)): 400 nM | EC50 (KG1; KG-1, KG1 WT): 50 nM | EC50 (SKM1; SKM-1, SKM1 AraCR (AraC resistant)): 4860 nM | EC50 (SKM1; SKM-1, SKM1 WT): 116 nM | EC50 (HL60; HL-60, HL60 AraCR (AraC resistant)): 220 nM | EC50 (HL60; HL-60, HL60 WT): 29.8 nM
